Data from US20150141336A1, “Pancreatic Peptide Compounds and Use” (Novo Nordisk A/S, priority 2012, published 2015).
Numbered stars: 1 amine (or outer) side, 2 acyl side, 3 side chain; on linkers, the order of the positions; unused ones are H or OH. Side chains are listed from the residue outwards. Peptide text beside a SMILES is read from it. * marks the point of attachment. C18 diacid = O=C(O)CCCCCCCCCCCCCCCCC(=O)*; γGlu = O=C(O)[C@H](CCC(=O)[*:2])N[*:1]; AEEA = NCCOCCOCC(=O)O

Assay: Assay (II) PK i.v. minipig, in vivo half-life
Parameters: species or system Göttingen mini-pigs
Conditions: male, Göttingen, minipig, iv, Half-life minipig, Assay (II)
Experimental: An assay useful for measuring the pharmacokinetic (PK) profile of the PP peptide is the following mini-pig PK assay.
Five male Göttingen mini-pigs weighing approximately 18 to 22 kg from Ellegaard Göttingen Minipigs NS, Denmark are included in the study. The mini-pigs have two central venous catheters inserted which are used for intra venous (i.v.) dosing and blood sampling. The test compound is dissolved in 50 mM K2HPO4, 0.05% tween 80, pH=8.0 to a concentration of 180 nmol/ml. For comparison a control compound, such as human PP(1-36), may be administered. The pigs are dosed with 6 nmol test compound/kg body weight. Blood samples are taken at the following time points: pre-dose, 30 minutes, 1, 2, 4, 8, 24, 48, 72, 96, 120, 168 and 240 hours post dosing. The blood samples were collected into test tubes containing EDTA buffer for stabilization and kept on ice for max. 20 minutes before centrifugation. The centrifugation procedure to separate plasma may be: 4° C., approx. 2500 g for 10 minutes. Plasma is collected and immediately transferred to Micronic tubes stored at −20° C. until assayed.
The test compounds were assayed in plasma by Turbulent Flow Chromatography coupled to Liquid Chromatography with subsequent Tandem Mass Spectrometric Detection (TFC/LC/MS/MS). Positive mode ionization and Multiple Reaction Monitoring (MRM) of a multiple protonated species fragmented to a singly charged ion was employed for selectivity. The selectivity of the method allows multiple compounds to be quantified in one sample.
The concentrations of the test compound in samples of unknown concentration were calculated using the peak area as a function of amount. Calibration graphs based on plasma samples spiked with the analyte were constructed by regression analysis. Typical dynamic range for standard assay was 1-2000 nmol/I. The method performance was assured by co-assaying quality control (QC) samples in duplicate at three concentration levels.
Stock and working solutions of analytes were prepared in plasma and incubated by 37° C. for 1 hour.
Sample Preparation: 40.0 μl EDTA-plasma was added 160 μl 50% methanol, 1% formic acid, then vortexed and centrifuged at 16457 g at 4° C. for 20 minutes. The supernatant was transferred to a 96 well plate, plates incubated with 0.4% BSA, 37° C. for ½ hour. Injection volume was 25 μl.
The analysis was carried out on a Sciex API 3000 mass spectrometer (MDS/Sciex, Concord, ON, Canada) using a TurbolonSpray interface. The TFC/LC system consisted of two Flux Rheos 2000 quaternary pumps, a Cohesive VIM module (Cohesive Technologies, Franklin, Mass., USA) and a CTC LC/PAL auto sampler (CTC Analytics, Zingen, Switzerland). The centrifuge employed was a HettichMikro 22R (A. Hettich, Tuttlingen, Germany). For sample clean up a TurboFlow C8 column (0.5×50 mm) (Cohesive Technologies/Thermofisher) was used and the LC separation was done on a Proteo 4 μm column (2.0×50 mm) (Phenomenex, Torrance, Calif., USA). Eluents were isocratic and gradient combinations of methanol, acetonitril, Milli-Q water and formic acid.
Non-compartmental analysis (NCA): Plasma concentration-time profiles are analyzed by non-compartmental pharmacokinetics analysis (NCA) using WinNonlin Professional 5.0 (Pharsight Inc., Mountain View, Calif., USA). NCA is performed using the individual plasma concentration-time profiles from each animal.

Row | half-life [h] | Compound
1 | 44 | CC[C@H](C)[C@H](NC(=O)[C@H](Cc1ccc(O)cc1)NC(=O)[C@H](CCCNC(=N)N)NC(=O)[C@H](CCCNC(=N)N)NC(=O)[C@H](CCCCNC(=O)COCCOCCNC(=O)COCCOCCNC(=O)CC[C@H](NC(=O)CCCCCCCCCCCCCCCCC(=O)O)C(=O)O)NC(=O)[C@H](CC(=O)O)NC(=O)[C@H](C)NC(=O)[C@H](C)NC(=O)[C@H](Cc1ccc(O)cc1)NC(=O)[C@H](CCC(N)=O)NC(=O)[C@H](C)NC(=O)[C@H](CCSC)NC(=O)[C@H](CCC(N)=O)NC(=O)[C@H](CCC(=O)O)NC(=O)[C@@H]1CCCN1C(=O)[C@@H](NC(=O)[C@H](C)NC(=O)[C@H](CC(N)=O)NC(=O)[C@H](CC(=O)O)NC(=O)CNC(=O)[C@@H]1CCCN1C(=O)[C@H](Cc1ccc(O)cc1)NC(=O)[C@@H](NC(=O)[C@@H]1CCCN1C(=O)[C@H](CCC(=O)O)NC(=O)[C@H](CC(C)C)NC(=O)[C@@H]1CCCN1)C(C)C)[C@@H](C)O)C(=O)N[C@@H](CC(N)=O)C(=O)N[C@@H](CCSC)C(=O)N[C@@H](CC(C)C)C(=O)N[C@H](C(=O)N[C@@H](CCCNC(=N)N)C(=O)N1CCC[C@H]1C(=O)N[C@@H](CCCNC(=N)N)C(=O)N[C@@H](Cc1ccc(O)cc1)C(N)=O)[C@@H](C)O [Compound J] (H-PLEPVYPGDNATPEQMAQYAADK([AEEA-AEEA-γGlu-C18 diacid])RRYINMLTRPRY-NH2; N-terminus and C-terminus assumed)
2 | 9 | CC[C@H](C)[C@H](NC(=O)[C@H](Cc1ccc(O)cc1)NC(=O)[C@H](CCCNC(=N)N)NC(=O)[C@H](CCCNC(=N)N)NC(=O)[C@H](CC(C)C)NC(=O)[C@H](CC(=O)O)NC(=O)[C@H](C)NC(=O)[C@H](C)NC(=O)[C@H](Cc1ccc(O)cc1)NC(=O)[C@H](CCC(N)=O)NC(=O)[C@H](C)NC(=O)[C@H](CCSC)NC(=O)[C@H](CCC(N)=O)NC(=O)[C@H](CCC(=O)O)NC(=O)[C@@H]1CCCN1C(=O)[C@@H](NC(=O)[C@H](C)NC(=O)[C@H](CC(N)=O)NC(=O)[C@H](CC(=O)O)NC(=O)CNC(=O)[C@@H]1CCCN1C(=O)[C@H](CCCCNC(=O)COCCOCCNC(=O)COCCOCCNC(=O)CC[C@H](NC(=O)CCCCCCCCCCCCCCCCC(=O)O)C(=O)O)NC(=O)[C@@H](NC(=O)[C@@H]1CCCN1C(=O)[C@H](CCC(=O)O)NC(=O)[C@@H](N)CC(C)C)C(C)C)[C@@H](C)O)C(=O)N[C@@H](CC(N)=O)C(=O)N[C@@H](CCSC)C(=O)N[C@@H](CC(C)C)C(=O)N[C@H](C(=O)N[C@@H](CCCNC(=N)N)C(=O)N1CCC[C@H]1C(=O)N[C@@H](CCCNC(=N)N)C(=O)N[C@@H](Cc1ccc(O)cc1)C(N)=O)[C@@H](C)O [Compound BI]
3 | 59 | CC[C@H](C)[C@H](NC(=O)[C@H](Cc1ccc(O)cc1)NC(=O)[C@H](CCCNC(=N)N)NC(=O)[C@H](CCCNC(=N)N)NC(=O)[C@H](CC(C)C)NC(=O)[C@H](CC(=O)O)NC(=O)[C@H](C)NC(=O)[C@H](CCCCNC(=O)COCCOCCNC(=O)COCCOCCNC(=O)CC[C@H](NC(=O)CCCCCCCCCCCCCCCCC(=O)O)C(=O)O)NC(=O)[C@H](Cc1ccc(O)cc1)NC(=O)[C@H](CCC(N)=O)NC(=O)[C@H](C)NC(=O)[C@H](CCSC)NC(=O)[C@H](CCC(N)=O)NC(=O)[C@H](CCC(=O)O)NC(=O)[C@@H]1CCCN1C(=O)[C@@H](NC(=O)[C@H](C)NC(=O)[C@H](CC(N)=O)NC(=O)[C@H](CC(=O)O)NC(=O)CNC(=O)[C@@H]1CCCN1C(=O)[C@H](Cc1ccc(O)cc1)NC(=O)[C@@H](NC(=O)[C@@H]1CCCN1C(=O)[C@H](CCC(=O)O)NC(=O)[C@@H](N)CC(C)C)C(C)C)[C@@H](C)O)C(=O)N[C@@H](CC(N)=O)C(=O)N[C@@H](CCSC)C(=O)N[C@@H](CC(C)C)C(=O)N[C@H](C(=O)N[C@@H](CCCNC(=N)N)C(=O)N1CCC[C@H]1C(=O)N[C@@H](CCCNC(=N)N)C(=O)N[C@@H](Cc1ccc(O)cc1)C(N)=O)[C@@H](C)O [Compound AU] (H-LEPVYPGDNATPEQMAQYK([AEEA-AEEA-γGlu-C18 diacid])ADLRRYINMLTRPRY-NH2; N-terminus and C-terminus assumed)
4 | 71 | CC[C@H](C)[C@H](NC(=O)[C@H](Cc1ccc(O)cc1)NC(=O)[C@H](CCCNC(=N)N)NC(=O)[C@H](CCCNC(=N)N)NC(=O)[C@H](CC(C)C)NC(=O)[C@H](CC(=O)O)NC(=O)[C@H](C)NC(=O)[C@H](C)NC(=O)[C@H](Cc1ccc(O)cc1)NC(=O)[C@H](CCC(N)=O)NC(=O)[C@H](CCCCNC(=O)COCCOCCNC(=O)COCCOCCNC(=O)CC[C@H](NC(=O)CCCCCCCCCCCCCCCCC(=O)O)C(=O)O)NC(=O)[C@H](CCSC)NC(=O)[C@H](CCC(N)=O)NC(=O)[C@H](CCC(=O)O)NC(=O)[C@@H]1CCCN1C(=O)[C@@H](NC(=O)[C@H](C)NC(=O)[C@H](CC(N)=O)NC(=O)[C@H](CC(=O)O)NC(=O)CNC(=O)[C@@H]1CCCN1C(=O)[C@H](Cc1ccc(O)cc1)NC(=O)[C@@H](NC(=O)[C@@H]1CCCN1C(=O)[C@H](CCC(=O)O)NC(=O)[C@H](CC(C)C)NC(=O)[C@@H]1CCCN1)C(C)C)[C@@H](C)O)C(=O)N[C@@H](CC(N)=O)C(=O)N[C@@H](CCSC)C(=O)N[C@@H](CC(C)C)C(=O)N[C@H](C(=O)N[C@@H](CCCNC(=N)N)C(=O)N1CCC[C@H]1C(=O)N[C@@H](CCCNC(=N)N)C(=O)N[C@@H](Cc1ccc(O)cc1)C(N)=O)[C@@H](C)O [Compound P] (H-PLEPVYPGDNATPEQMK([AEEA-AEEA-γGlu-C18 diacid])QYAADLRRYINMLTRPRY-NH2; N-terminus and C-terminus assumed)
5 | 52 | CC[C@H](C)[C@H](NC(=O)[C@H](Cc1ccc(O)cc1)NC(=O)[C@H](CCCNC(=N)N)NC(=O)[C@H](CCCNC(=N)N)NC(=O)[C@H](CC(C)C)NC(=O)[C@H](CC(=O)O)NC(=O)[C@H](C)NC(=O)[C@H](C)NC(=O)[C@H](Cc1ccc(O)cc1)NC(=O)[C@H](CCC(N)=O)NC(=O)[C@H](C)NC(=O)[C@H](CCSC)NC(=O)[C@H](CCC(N)=O)NC(=O)[C@H](CCC(=O)O)NC(=O)[C@@H]1CCCN1C(=O)[C@@H](NC(=O)[C@H](C)NC(=O)[C@H](CC(N)=O)NC(=O)[C@H](CC(=O)O)NC(=O)CNC(=O)[C@@H]1CCCN1C(=O)[C@H](Cc1ccc(O)cc1)NC(=O)[C@@H](NC(=O)[C@@H]1CCCN1C(=O)[C@H](CCCCNC(=O)COCCOCCNC(=O)COCCOCCNC(=O)CC[C@H](NC(=O)CCCCCCCCCCCCCCCCC(=O)O)C(=O)O)NC(=O)[C@@H](N)CC(C)C)C(C)C)[C@@H](C)O)C(=O)N[C@@H](CC(N)=O)C(=O)N[C@@H](CCSC)C(=O)N[C@@H](CC(C)C)C(=O)N[C@H](C(=O)N[C@@H](CCCNC(=N)N)C(=O)N1CCC[C@H]1C(=O)N[C@@H](CCCNC(=N)N)C(=O)N[C@@H](Cc1ccc(O)cc1)C(N)=O)[C@@H](C)O [BL]
6 | 80 | CC[C@H](C)[C@H](NC(=O)[C@H](Cc1ccc(O)cc1)NC(=O)[C@H](CCCNC(=N)N)NC(=O)[C@H](CCCNC(=N)N)NC(=O)[C@H](CC(C)C)NC(=O)[C@H](CC(=O)O)NC(=O)[C@H](C)NC(=O)[C@H](C)NC(=O)[C@H](Cc1ccc(O)cc1)NC(=O)[C@H](CCC(N)=O)NC(=O)[C@H](C)NC(=O)[C@H](CCSC)NC(=O)[C@H](CCC(N)=O)NC(=O)[C@H](CCC(=O)O)NC(=O)[C@@H]1CCCN1C(=O)[C@@H](NC(=O)[C@H](C)NC(=O)[C@H](CC(N)=O)NC(=O)[C@H](CC(=O)O)NC(=O)CNC(=O)[C@@H]1CCCN1C(=O)[C@H](Cc1ccc(O)cc1)NC(=O)[C@@H](NC(=O)[C@@H]1CCCN1C(=O)[C@H](CCC(=O)O)NC(=O)[C@@H](N)CC(C)C)C(C)C)[C@@H](C)O)C(=O)N[C@@H](CC(N)=O)C(=O)N[C@@H](CCSC)C(=O)N[C@@H](CC(C)C)C(=O)N[C@@H](CCCCNC(=O)COCCOCCNC(=O)COCCOCCNC(=O)CC[C@H](NC(=O)CCCCCCCCCCCCCCCCC(=O)O)C(=O)O)C(=O)N[C@@H](CCCNC(=N)N)C(=O)N1CCC[C@H]1C(=O)N[C@@H](CCCNC(=N)N)C(=O)N[C@@H](Cc1ccc(O)cc1)C(N)=O [Compound AJ] (H-LEPVYPGDNATPEQMAQYAADLRRYINMLK([AEEA-AEEA-γGlu-C18 diacid])RPRY-NH2; N-terminus and C-terminus assumed)
